# Results: patent publication US7598028B2, “Compositions and methods for detecting and treating prostate disorders” (The Regents of the University of Michigan, priority 2006, dated 2009)
# Legend:
# Format in all cases: cell-based, human
# [1] = tested on: N15C6 prostate epithelial cells; test: Proliferation assay (cell counts), N15C6; settings: add back of exogenous chemokine, 96 hours
# Description: (§1) Proliferation assays. Cellular proliferation was assessed after plating cells at 50 000 cell/well in triplicate in six-well plates and counting cells after 24 and 96 h of incubation in complete media, serum-free media or serum-free prostate stromal fibroblast conditioned media, as described previously (Macoska J A, et al., (2004) Cancer Genet. Cytogenet. 154, 36-43; incorporated herein by reference in its entirety). Averages and standard deviations of cell number were calculated for each time point under each media condition. To assess the effects of exogenous CXCL12 on cellular proliferation, recombinant human SDF1 alpha/CXCL12 (R & D Systems, 350-NS) was added at the desired concentration in 1 mL SF HIE (or 1 mL SF HIE alone for control) to each well. The cells were counted at 24 and 96 h growth and re-fed at 48 and 72 h growth. Cell counts were normalized to 50 000 cells at 24 h to account for any plating discrepancies.
# (§2) Proliferation Assays. Cellular proliferation was assessed after plating cells at 50,000 cell/well in triplicate in six well plates and counting cells after 24 and 96 hours of incubation as described previously (see, e.g., Macoska J A, et al., 2004 Cancer Genet. Cytogenet. 154, 36-43; incorporated herein by reference in its entirety). To assess the effects of exogenous CXCL12 on cellular proliferation, recombinant human SDF1 alpha/CXCL12 (R&D Systems, 350-NS) was added at the desired concentration in 1 ml SF HIE (or 1 ml SF HIE alone for control) to each well. The cells were re-fed at 48 and 72 hours growth and counted at 24 and 96 hours growth. Cell counts were normalized to 50,000 cells at 24 hours to account for any plating discrepancies. Averages and standard deviations of cell number were calculated for each time point under each media condition. Experiments utilizing U0126 were performed as above, except that cells were treated after plating for 2 hours with either DMSO (vehicle) or 5 uM U0126 before addition of CXCL12. Cells were maintained in media containing DMSO or U0126 for the entirety of the experiment. For the antibody blockade experiments, cells were plated at 10,000 cells per well in triplicate in 24 well dishes and pre-incubated with mouse IgG2aκ (BD Pharmingen 555571) or mouse anti-CXCR4 (BD Pharmingen 555971) at 1 ug/ml for 1 hour prior to CXCL12 addition. Cells were maintained in media containing appropriate antibodies for the entirety of the experiment, and cells were counted at 24 and 96 hours as above.
# (§3) Proliferation Assays. Cellular proliferation was assessed after plating cells at 50,000 cell/well in triplicate in six well plates and counting cells after 24 and 96 hours of incubation as described previously (see, e.g., Begley L, et al., Genes Chromosomes Cancer. 2006 February; 45(2): 136-46; herein incorporated by reference in its entirety). To assess the effects of exogenous CXCL5 on cellular proliferation, recombinant human CXCL5 (R&D Systems, 254-X) was added at the desired concentration in 2 ml SF media (or 2 ml SF media alone for control) to each well. The cells were re-fed at 24 hours growth and counted at 24 and 96 hours growth. Cell counts were normalized to 50,000 cells at 24 hours to account for any plating discrepancies. Averages and standard deviations of cell number were calculated for each time point under each media condition. For the antibody blockade experiments, 10,000 cells per well were plated in triplicate in 24 well dishes and preincubated with mouse anti-human CXCR2 (Biosource AHR1532X) or mouse antihuman CXCR4 (BD Pharmingen 555971) at 1 ug/ml for 1 hour prior to CXCL5 addition. Cells were maintained in media containing appropriate antibodies for the entirety of the experiment and were counted at 24 and 96 hours as above.
# [2] = tested on: LNCaP prostate epithelial cells; test: Proliferation assay (cell counts), LNCaP; settings: add back of exogenous chemokine, 96 hours
# Description: as §1, §2, §3
# [3] = tested on: N1 prostate fibroblast cells; test: Proliferation assay, add back, N1 fibroblasts; settings: add back of exogenous chemokine, 96 hours
# Description: FIG. 6C describes how CXCL1, CXCL5, CXCL6, and CXCL12 stimulate N15C6 prostate epithelial cell proliferation, N1 prostate fibroblast cell proliferation, and LNCaP prostate epithelial cell proliferation compared to serum-free (SF HIE) media alone. “Add back” assays were next performed to determine whether the addition of exogenous CXCL1, CXCL5, CXCL6, and CXCL12 to defined, serum-free media induced […] or LNCaP prostate epithelial or N1 fibroblast cell proliferation. For these and all experiments utilizing N15C6 and LNCaP cells, the N15C6 and N1 cells were used between passage 35-45, and LNCaP cells between passages 25-35, for consistency. All recombinant CXC proteins were obtained from R&D systems (e.g., CXCL1, #275-GR, CXCL5, #254-X; CXCL6, #333-GC, and SDF1 alpha/CXCL12, #350-NS). Cells were plated at 50,000 cells/well in triplicate, treated for 96 hours, and counted. […] Moreover, the concentrations for CXCL1, CXCL5, CXCL6 and CXCL12 observed to be growth-stimulatory for prostate epithelial cells were similar to those secreted into the media by older prostate stromal fibroblasts (see, e.g., FIGS. 6A and 6B).
# [4] = tested on: N15C6 cells; test: Migratory/invasive response to CXCL5, N15C6 (contemplated); settings: 2 hours pre-treatment: 100 nM wortmannin, 20 uM LY294002a or 10 mM tyrphostin A9
# Description: (§4) PC3 cells invaded through Matrigel in response to both CXCL5 and CXCL12. In experiments conducted during the development of embodiments for the present invention, the effect for CXCL12 was abrogated when the cells were pre-treated with antibody against the CXCR4 receptor but not when the cells were treated with the IgG isotype control. […] It is contemplated that PI3K-mediated FAK activation is involved in CXCL5-stimulated epithelial cell migration. Protein purified from cells exposed to CXCL5 using Western blot analysis and antibodies to FAK, Crk, p130Cas, and the phospho-forms of these proteins will be examined. It is contemplated that PI3K signaling involvement in the migratory/invasive response to cytokine stimulation by CXCL5 occurs through, for example, phosphorylation of FAK, Crk and p130Cas. It is contemplated that inhibition of downstream PI3K signaling abrogates the migratory/invasive response of CXCL5. For example, it is contemplated that N15C6 or LNCaP cells pre-treated with PI3K inhibitors (e.g., 100 nM wortmannin or 20 uM LY294002a) or 10 mM of the RAFTK/Pyk2 inhibitor tyrphostin A9 for 2 hours, then exposed to CXCL5 previously shown to stimulate the migratory/invasive response, for 2 hours, abroagates the migratory/invasive response of CXCL5.
# [5] = tested on: LNCaP cells; test: Migratory/invasive response to CXCL5, LNCaP (contemplated); settings: 2 hours pre-treatment: 100 nM wortmannin, 20 uM LY294002a or 10 mM tyrphostin A9
# Description: as §4
# [6] = tested on: ERK ½; test: Western blot, ERK phosphorylation in LNCaP cells; settings: 100 ng/ml EGF or 50 μM CXCL12 (FIG. 19C)
# Description: Western Blot Analysis. Cells were lysed, proteins resolved by electrophoresis, and electroblotting was carried out as described previously (see, e.g.; Chaib H, et al., 2001 Cancer Res. 61, 2390-2394; incorporated herein by reference in its entirety). Proteins were detected using antibodies against phospho-ERK½ (Cell Signaling #9101), total ERK½ (Cell Signaling #9102), CXCR4 (Abcam #ab2074), Elk-1 (Cell Signaling #9182), Phospho Elk-1 (Cell Signaling #9181), or beta-actin (Santa Cruz #sc-1615), in conjunction with an ECL detection system.
# Western Blot and Protein Analysis. Cells were lysed, proteins resolved by electrophoresis, and electroblotting was carried out as described previously except that 20 ug protein was electrophoresed per gel lane for N15C6 cells and 100 ug protein for LNCaP cells (see, e.g., Begley L, et al., Aging Cell. 2005 December; 4(6):291-8; Begley L A, et al., J Biol. Chem. 2007 Sep. 14; 282(37):26767-74; each herein incorporated by reference in their entireties). Proteins were detected using antibodies against phospho-ERK½ (Cell Signaling #9101), total ERK½ (Cell Signaling, #9102), phospho-p65, (Rockland #100-401-264), total p65 (Rockland #100-4165), STAT3 (9139), phospho-STAT3 (9138), beta-actin (Santa Cruz #sc-1615), or tubulin (Upstate, #DM1A) in conjunction with an ECL detection system. Secondary antibodies included goat anti-rabbit (Cell Signaling, #7074) and goat anti-mouse (Santa Cruz, #SC-2005), and both were used at a 1:5000 concentration. Immunoblots shown are representative of triplicate experiments. Densitometric quantitation of immunoblot films was accomplished by scanning the original films and converting the .tiff files to grayscale. Images were inverted, and mean band intensities were measured using ImageJ (www, followed by, .nih.gov). The mean intensity of adjacent background was also measured for each band and subtracted from band intensity.
Compound,cell proliferation compared to serum-free (SF HIE) media alone [1],cell proliferation compared to serum-free (SF HIE) media alone [2],cell proliferation compared to serum-free (SF HIE) media alone [3],effect on migratory/invasive response of CXCL5 (contemplated) [4],effect on migratory/invasive response of CXCL5 (contemplated) [5],ERK phosphorylation (pERK) [6]
"CXCL6: recombinant CXC protein from R&D systems, #333-GC",stimulate,stimulate,stimulate,–,–,–
CC(C)(C)c1cc(C=C(C#N)C#N)cc(C(C)(C)C)c1O [tyrphostin A9],–,–,–,abroagates,abroagates,–
"CXCL1: recombinant CXC protein from R&D systems, #275-GR",stimulate,stimulate,stimulate,–,–,–
"EGF: epidermal growth factor, used at 100 ng/ml",–,–,–,–,–,minimal
O=c1cc(N2CCOCC2)oc2c(-c3ccccc3)cccc12 [LY294002a],–,–,–,abroagates,abroagates,–
